Source: patent US6159953A, “Anti-malarial composition and method of use” (Catholic University of America, priority 1992, dated 2000)
Like-named read-outs stand apart in the source and are kept apart here.

What was measured:
[1] = system: Plasmodium falciparum, Sierra Leone clone; assay: [U-14C]-isoleucine incorporation into parasite protein, Sierra Leone clone; format: cell-based, P. falciparum; details: Table 2, isoleucine uptake
Experimental: 3. […] Agents Chemotherap., 16:710-18 (1979)].
The chloroquine-sensitive Sierra Leone clone of P. falciparum was cultured in erythrocytes as in Example 1 above. In one method of determining the toxicity of 5-fluoro-orotate, [G-^3 H]-hypoxanthine uptake was used as an indicator of parasite proliferation, according to the procedure of Example 1 above. In a second method, the increase in parasitemia was determined directly by smearing infected erythrocytes on microscope slides, staining with Giemsa stain, and determining the ratio of infected to non-infected erythrocytes. In a third method, parasite-infected erythrocytes were incubated with [U-^14 C]-isoleucine (0.5 μCi; 0.33 Ci/mmol), and the amount of radioactivity incorporated into precipitable proteins determined.

[2] = system: L-1210 mouse lymphocytic leukemia cells; assay: Toxicity to cultured L-1210 cells, number of viable cells; format: cell-based
Excerpt: 2. Effects of orotate analogues on cell viability and the ability to synthesize nucleic acids from radioactive precursors, and the rescuing effects of normal pyrimidine bases or nucleosides or amino acid derivatives such as histidinol, can be tested in human-derived tissue culture cell lines. Human HT-1080 human sarcoma cells [Rusheed, S., et al., Cancer, 33:1027-30 (1974)], human diploid IMR-90 cells [Nichols, W. W., et al., Science, 196:60-3 (1977)], human cervical […] HeLa S3 cells [Puck, T. T., et al., J. Exp. Med., 103:273-84 (1956)], HL-60 human myeloid leukemia cells [Collins, S. J., et al., Nature, 270:347-9 (1977)], and mouse leukemia L-1210 cells [Moore, G. E., J. Nat. […] The growth medium most suitable for each cell line can be determined by reference to the publications cited above: briefly, HT-1080 cells are maintained in Eagle's Minimal Essential Medium (EMEM) supplemented with 5% fetal bovine serum (FBS) and 2 mM L-glutamine; IMR-90 cells are grown in EMEM supplemented with 10% FBS, 10 mM Hepes buffer, 0.21% NaHCO3, and 2 mM L-glutamine. […]
Toxicity of pyrimidine analogues to cultured human cells is determined as follows. […] Thereafter, the number of cells in each well is determined. […] Cells that grow in suspension (e.g., HL-60 and L-1210 cells) are transferred to centrifuge tubes, pelleted at low speed, washed, and the viability determined as above. […]

Compound: O=C(O)c1[nH]c(=O)[nH]c(=O)c1F [5-fluoro-orotate]
- IC50 [1]: 0.0047 µM
- IC50 ([2]; L1210, L-1210, with 1 mM uridine, read-out: IC50 With 1 mM Uridine): 5 µM
- IC50 ([2]; L1210, L-1210, without uridine, read-out: IC50 Without Uridine): 2.8 µM
